Data reported in patent US20220193072A1, “METHODS OF TREATING BREAST CANCER WITH TETRAHYDRONAPHTHALENE DERIVATIVES AS ESTROGEN RECEPTOR DEGRADER” (Arvinas Operations, Inc., priority 2020, published 2022).

Legend:
[1] = 28-day oral toxicology study in dogs; type: in vivo; settings: oral once daily 28 days
ERα = molecular target: T1, ERα (Homo sapiens, UniProt P03372); experiment: ERα levels in tamoxifen-resistant MCF7 xenografts (immunoblot); type: in vivo, Nu/Nu mice; settings: tamoxifen-resistant MCF7, 30 mg/kg, study termination
T1 construct: robustly degrades ER in ER-positive breast cancer cell lines; endogenous in cells; host or cells: MCF7, T47D (cell culture); MCF7 and tamoxifen-resistant MCF7 xenograft tumours in mice
T1 sequence (P03372 1-595): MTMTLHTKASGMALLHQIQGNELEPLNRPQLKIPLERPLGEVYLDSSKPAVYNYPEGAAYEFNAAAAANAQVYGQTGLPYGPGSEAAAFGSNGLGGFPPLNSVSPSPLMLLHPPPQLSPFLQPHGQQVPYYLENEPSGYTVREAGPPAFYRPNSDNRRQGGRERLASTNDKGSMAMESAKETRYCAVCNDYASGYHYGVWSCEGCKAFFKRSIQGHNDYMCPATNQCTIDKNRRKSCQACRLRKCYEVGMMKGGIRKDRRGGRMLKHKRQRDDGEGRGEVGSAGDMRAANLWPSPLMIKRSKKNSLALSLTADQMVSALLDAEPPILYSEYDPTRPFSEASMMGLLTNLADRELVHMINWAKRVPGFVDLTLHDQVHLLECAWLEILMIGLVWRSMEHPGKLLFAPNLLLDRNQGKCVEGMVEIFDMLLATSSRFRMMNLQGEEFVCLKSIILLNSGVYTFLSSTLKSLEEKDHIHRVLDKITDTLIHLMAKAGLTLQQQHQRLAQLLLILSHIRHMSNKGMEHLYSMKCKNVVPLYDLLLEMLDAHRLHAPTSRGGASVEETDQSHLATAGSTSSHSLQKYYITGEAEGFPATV
Procedure: At study termination, the tumors were removed from the mice, and ERα levels were determined by immunoblotting the tumor homogenates. […] ERα levels from the various compound arms were compared to vehicle-treated animals by analyzing the tumor lysates on separate immunoblots (graphs in FIG. 10, FIG. 11, and FIG. 12 depict data from individual immunoblots) and the average ERα levels with standard deviation is shown.
Sampling: Tumors were measured twice weekly. Terminal sacrifice was ˜18 hr after last dose; tumors were harvested, divided, and flash frozen. ERα levels were determined by immunoblotting (see Appendix 1 for details).
Flash frozen tumors were removed from −80° C. storage and placed on dry ice. RIPA lysis buffer and Halt protease inhibitors were used at 400 μl per tumor sample. A steel ball (5 mm) was placed in each sample for tissue disruption. Samples were lysed with TissueLyzer at 24 Hz for 4 minutes. The homogenization was stopped half way through the process and the block flipped over for the duration of the process. […] Lysates were then measured for total protein concentration by BCA (per manufacturer's protocol). […]
Protein was transferred from gels to nitrocellulose with Bio-Rad Turbo on default setting. […] The blots were cut so that beta-actin and ERα can be detected from the same lane/sample. […]

MCF7 xenograft = experiment: MCF7 orthotopic xenograft, combination with PI3K inhibitor alpelisib; type: in vivo, NOD/SCID mice
Procedure: NOD/SCID female mice (Charles River, 6-7 weeks old upon arrival) were implanted with 17b-estradiol 0.72 mg 90-day pellets. The next day, each mouse was implanted with 5×10^6 MCF7 cells/[…] in the axial mammary fat pad. Compound administration was initiated once the tumors reached 175-200 mm^3. Diet was supplemented with peanut butter to help maintain body weights. Dosing holidays occurred on days 6, 7, 8 and 9 due to body weight loss in some animals in study arms 3 and 4. […] (FIG. 31 and Table 15).
Dosing holidays occurred on days 6, 7, 8 and 9. Error bars represent standard deviation.
The ratio of Tween 80 to PEG-400 is 0.02 g Tween 80 to 1 ml PEG-400. PEG-400 is added to a pre-aliquoted volume of Tween 80. • For alpelisib: 1% carboxymethylcellulose (CMC), 0.5% Tween 80/DI water (‘CMC/Tween’) Sampling: tumors were measured twice weekly. Terminal sacrifice was ˜18 hr after last dose. Tumor volume calculation: Tumor Volume=(width×width×length)/2, where all measurements are in mm and the tumor volume is in mm^3. Tumor Growth Inhibition (TGI) calculation: TGI (%)

estrogen receptor = experiment: In vitro ER degradation in ER-positive breast cancer cell lines (DC50); settings: wild-type and variant ERα expressing cell lines
[2] = Compound (I-c) 30 mg/kg oral QD x 19

In the case of `O=C1CC[C@H](N2Cc3cc(N4CCN(CC5CCN(c6ccc([C@@H]7c8ccc(O)cc8CC[C@@H]7c7ccccc7)cc6)CC5)CC4)ccc3C2=O)C(=O)N1` [Compound (I-c), (3S)-3-[5-[4-[[1-[4-[(1R,2S)-6-hydroxy-2-phenyl-tetralin-1-yl]phenyl]-4-piperidyl]methyl]piperazin-1-yl]-1-oxo-isoindolin-2-yl]piperidine-2,6-dione], the “clinical signs of toxicity” value ([1]; doses up to 90 mg/kg/day) is reported as “no clinical signs of toxicity”, the “effects on overall animal health or well-being” value ([1]; up to 90 mg/kg/day) is reported as “no effects on the overall animal health or well-being” and the “reduction of tumor ERα levels vs vehicle” value (ERα) is reported as 73%. The “Day 19 Tumor Volume (mean ± SD)” value (MCF7 xenograft; [2]) was 207 ± 62 mm^3, the “TGI (% vehicle)” value (MCF7 xenograft; [2]) was 95 % vehicle and the “tumor growth inhibition (TGI)” value (MCF7 xenograft; single agent 30 mg/kg oral once daily, 19 days, dosing holidays days 6-9) was 95%. For the same molecule, the ERα degradation potency (estrogen receptor) was “single-digit nanomolar”.
